According to US5220042A, “1,4-benzoquinone derivatives and benzene derivatives, and process for preparing the same” (priority 1984, dated 1993):

Tested on: histamine release from lung fragments
Assay: Inhibition of histamine release from sensitized guinea pig lung fragments
Assay type: cell-based, guinea pig (Hartley strain)
Conditions: Cavia porcellus, read-out: Inhibition ratio (%) Histamine; for inhibition at 3 µM: Table 2, dose 3 μM; for inhibition at 30 µM: Table 2, dose 30 μM
Description: Inhibitory activities on the release of SRS-A and histamine of the present compounds were determined.
A male guinea pig (Hartley strain) (body weight: about 300 g) was sensitized by a method according to P. Anderson: "Int. Archs. Allergey appln. Immunol., Vol. 64, pages 249-258 (1981). Thus, 30 mg/kg of cyclophosphamide was intraperitoneally administered to the guinea pig, and 2 days after 1 microgram of ovalbumin (manufactured by Sigma Chemical Co., St. Louis, Mo. U. S. A.) together with 10 mg of aluminium hydroxide gel were intraperitoneally administered so as to have the animal sesitized.
50 Days after the sesitization, the animal was killed by exsanguination, and the lung was isolated from the animal and was perfused with 20 ml of Tyrode's solution, then immersed in an ice-cooled Tyrode's solution. The parenchyma of the lung was cut by using McIlwain-type tissue chopper to make it into fragments of lung having 2 mm square and the fragments were washed with Tyrode's solution. 400 Milligrams of sectiles of lung were suspended in 3.6 ml of Tyrode's solution, and this suspension was preincubated at 37° C. for 5 minutes, then 4 microliters of dimethyl sulfoxide solution of the test compound, in the case of control 4 microliters of dimethyl sulfoxide alone was added to the suspension. 5 Minutes after, 0.4 ml of 100 micrograms/ml of ovalbumin solution added so as to release SRS-A for 10 minutes. The suspension was ice-cooled and filtered through gauze, the filtrate was centrifuged at 2,000 rpm for 10 minutes and the supernatant was collected. The supernatant was stored in freezed state at -80° C. until bio-assay was conducted.
Amounts of SRS-A and histamine contained in the supernatant were determined by bio-assay using ileum of guinea pig.
A piece of the ileum (2-3 cm of length) positioned from 15-25 cm from the opening portion of ileocecum was isolated from a male guinea pig (Hartley strain) (body weight: 400-600 g) which was fasted for 24 hours. The piece of ileum was hanged vertically in a Magnus tube which was filled with 10 ml of Tyrode's solution containing 10^-7 M of atropine sulfate under air stream conditions. The isotonic contraction of the piece of the ileum was measured at 0.5 g of load by using an isotonic transducer "TD-112S" (manufactured by Nihon Koden Co., Ltd.). The measurements were carried out after the reaction to histamine of the piece of ileum was kept constant. Bioassay of histamine was measured by using the value of contraction shown in 30 seconds after the addition of the supernatant. Bioassay of on SRS-A was measured by using the value of contraction shown at 2 minutes after the addition of the supernatant in the presence of 10^-6 M of pyrilamine (manufactured by Sigma Chemical Co.), and compared with the standard curve of crude SRS-A released from the fragments of the lung.

Structure (SMILES)	inhibition at 3 µM	inhibition at 30 µM
COC1=CC(=O)C(OC)=C(CCCCCC2=C(OC)C(=O)C=C(OC)C2=O)C1=O [Test Compound No. 9, 2,2'-Pentamethylenebis(3,6-dimethoxy-1,4-benzoquinone)]	-15%	4.1%
COC1=CC(=O)C(OC)=C(CCCCCCCCCC2=C(OC)C(=O)C=C(OC)C2=O)C1=O [Test Compound No. 13, 2,2'-Nonamethylenebis(3,6-dimethoxy-1,4-benzoquinone)]	-2.7%	-14.9%
